Assay results: patent publication EP1310247A1 (priority 1997, dated 1999)

How the values were obtained:
Male Swiss-Webster mice [1] = assay: Locomotor activity: stimulant and depressant effects (horizontal distance); type: in vivo
Male Swiss-Webster mice [2] = assay: H1 antihistamine (triprolidine) interaction study, locomotor activity; type: in vivo; conditions: pretreatment with 0.01, 0.1, or 1.0 mg/kg triprolidine 20 minutes before
Experimental: H1 antihistamine interaction studies. […] The mice were then immediately placed in the activity-testing apparatus for a 2 hour session. […] Eight mice were tested for each triprolidine/sympathomimetic combination.
The dose-effect data were considered in 1-way analysis of variance, and planned individual comparisons were conducted between each dose and the saline control group.

dogs = assay: Dosage required to raise mean arterial pressure (MAP) by 10%; type: in vivo; conditions: experimentally determined
Experimental: Nasal airway pressure was measured using a Validyne pressure transducer (Validyne Engineering, Northridge, CA) with a 2.25 cm H2O range membrane connected to a multipen recorder (Grass Instruments, Quincy, MA). Air was passed through an in-line direct measure flow meter (Gilmont Instruments, Barrington, IL) connected to the nasal opening cannula. Pressure was measured in the line with a constant flow rate (150 ml/min) of air. Drugs were directly injected into the jugular vein using a 30 gauge needle. All injections were of a constant 0.1 ml volume. In the congestion challenged groups congestion was achieved by an intranasal administration of histamine (50 mM, 0.02 ml/nostril). The histamine was expelled after 2 minutes with a short nasal cannula airflow and subsequent enantiomeric drug doses were directly injected into the jugular vein. The dosage chosen for each drug was the amount needed to increase the mean arterial pressure (MAP) of the animal by 10%; this dosage served as the "100%" dose for the initial nasal airway studies. […] The dosage required for rats was calculated by proportionately adjusting the experimentally determined dog dosage to account for the lesser weight of the rats.

Sprague Dawley rats [3] = assay: Nasal airway pressure / resistance in anesthetized rats, normal and histamine-challenged; type: in vivo; conditions: 75% dose
Sprague Dawley rats [4] = assay: Mean arterial blood pressure after 75% dose in rats; conditions: compared with (+)-ephedrine
α2-Receptor = type: binding, mongrel dogs

SMILES: CC(N)Cc1ccccc1 (single isomer, unassigned; (+)) [(+)-amphetamine]
- Locomotor stimulant effects, time course (Male Swiss-Webster mice [1]; 2-hour session after i.p. injection, result in words): dose- and time-dependent increase in the distance traversed

SMILES: CN[C@H](C)[C@@H](O)c1ccccc1 [(+)-ephedrine]
- interaction with triprolidine pretreatment (horizontal movement) (Male Swiss-Webster mice [2]): no drug interaction is apparent
- Dosage required to raise MAP by 10%, Dog (dogs): 200 µg/kg
- effect on normal airway decongestion (Sprague Dawley rats [3]): the same efficacious effect on normal airway decongestion

SMILES: CN[C@@H](C)[C@@H](O)c1ccccc1 [(+)-pseudoephedrine]
- interaction with triprolidine pretreatment (horizontal movement) (Male Swiss-Webster mice [2]): increased horizontal movement is observed
- Dosage required to raise MAP by 10%, Dog (dogs): 200 µg/kg

SMILES: CN[C@@H](C)[C@H](O)c1ccccc1 [(-)-ephedrine]
- interaction with triprolidine pretreatment (horizontal movement) (Male Swiss-Webster mice [2]): increased horizontal movement is observed
- increase in blood pressure (Sprague Dawley rats [4]): slightly greater (though significant) increase in blood pressure than (+)-ephedrine
- Dosage required to raise MAP by 10%, Dog (dogs): 100 µg/kg
- effect on normal airway decongestion (Sprague Dawley rats [3]): the same efficacious effect on normal airway decongestion

SMILES: CNC[C@H](O)c1cccc(O)c1 [(-)-phenylephrine]
- Dosage required to raise MAP by 10%, Dog (dogs): 10 µg/kg

SMILES: CNC[C@H](O)c1ccc(O)c(O)c1 [Epinephrine]
- displacement of bound p-iodoclonidine (α2-Receptor): easily displaced all bound p-iodoclonidine

SMILES: Cc1ccc(/C(=C\CN2CCCC2)c2ccccn2)cc1 [triprolidine]
- effect on horizontal distance (Male Swiss-Webster mice [1]; mouse, in vivo): failed to affect horizontal distance
- effect on locomotion (Male Swiss-Webster mice [1]; triprolidine alone, 50 and 100 mg/kg, beginning within 10 minutes, lasting 30 to 40 minutes): Dose-dependent depression of locomotion
